“And” between values parts separate entries of the source, which are not always exact repeats. Equal values may be shown once. Read-outs that look alike come from different tables or passages of the source.
What was measured:
IRAK4 = IRAK4 (Homo sapiens (Human), UniProt Q9NWZ3); experiment: IRAK4 Inhibition Assay; type: biochemical; details: ATP 500 μM; IRAK4 0.6 nM; 60 min at room temperature
Procedure: The assays were performed in U-bottom 384-well plates. […] The reaction was initiated by the combination of IRAK4 with substrates and test compounds. The reaction was incubated at room temperature for 60 min. and terminated by adding 45 μL of 35 mM EDTA to each sample. The reaction mixture was analyzed on the Caliper LABCHIP® 3000 (Caliper, Hopkinton, Mass.) by electrophoretic separation of the fluorescent substrate and phosphorylated product.

[1] = tested on: TLR2 induced IL-6 in peripheral blood mononuclear cells (PBMCs); experiment: PBMC TLR2 Induced IL-6 Assay; type: cell-based, human; details: for IC50: read-out: Cell IC50; for EC50: EC50 determinations are indicated with an asterisk, read-out: Cell EC50 (asterisk)
Procedure: Peripheral blood mononuclear cells (PBMCs) were isolated from human blood containing the anti-coagulant EDTA (2.5 mM) by centrifugation over a FICOLL® gradient. PBMCs (250000 cells/well) were cultured in assay media (RPMI with 10% heat inactivated FCS) with compounds for 30 minutes at 37° C. in a 5% CO2 incubator. Following pretreatment with compounds, cells were stimulated for 5 hours with 10 μg/ml lipoteichoic acid (Invivogen, San Diego, Calif.), a TLR2 agonist. At the end of the culture, plates were centrifuged at 1800 rpm for 10 minutes to pellet the cells. Supernatants were harvested and analyzed for IL-6 levels by ELISA (BD Biosciences, San Jose, Calif.). Inhibition was calculated as either an IC50 or EC50. EC50 determinations are indicated with an asterisk.

[2] = Homo sapiens, PBMC, 5 h, human PBMCs, 10 μg/ml lipoteichoic acid for 5 hours, IL-6 by ELISA, value without asterisk
[3] = human PBMCs, 10 μg/ml lipoteichoic acid for 5 hours, IL-6 by ELISA, value without asterisk
[4] = Homo sapiens, PBMC, 5 h, human PBMCs, 10 μg/ml lipoteichoic acid for 5 hours, IL-6 by ELISA

Chain of IRAK4 (Q9NWZ3 whole entry, species assumed): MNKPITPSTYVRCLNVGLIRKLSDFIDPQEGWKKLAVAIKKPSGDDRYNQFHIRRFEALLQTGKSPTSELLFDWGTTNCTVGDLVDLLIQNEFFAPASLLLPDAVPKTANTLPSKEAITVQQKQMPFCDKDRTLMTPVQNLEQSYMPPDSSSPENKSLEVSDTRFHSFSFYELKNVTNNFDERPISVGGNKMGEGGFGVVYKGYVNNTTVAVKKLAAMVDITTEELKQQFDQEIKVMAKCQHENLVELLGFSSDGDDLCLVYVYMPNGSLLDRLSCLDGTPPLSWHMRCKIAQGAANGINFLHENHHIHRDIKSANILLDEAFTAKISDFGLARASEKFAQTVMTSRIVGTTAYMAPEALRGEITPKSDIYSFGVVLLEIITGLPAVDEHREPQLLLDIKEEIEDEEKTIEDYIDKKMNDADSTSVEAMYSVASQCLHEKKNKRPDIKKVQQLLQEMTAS

Structure (SMILES)	IC50 (IRAK4)	IC50 [1, 2]	IC50 [1, 3]	other results
CC(=O)NCCCNC(=O)c1cnc(Nc2ccc3ncsc3c2)cc1NC(C)C [Example 199]	8.4 nM	551 nM	–	–
CC(C)Nc1cc(Nc2ccc3ncsc3c2)ncc1C(=O)N[C@H]1CC[C@H](C(=O)NC2CC2)CC1 [Example 227]	2.7 nM	138 nM	–	–
CC(C)Nc1cc(Nc2ccc3ncsc3c2)ncc1C(=O)NC1CCC(O)(c2ccnn2C)CC1 (stereo not drawn) [Example 524]	3.7 nM	–	–	EC50 [1, 4]: 75 nM
CC(C)Nc1cc(Nc2ccc3ncsc3c2)ncc1C(=O)N[C@H]1CC[C@H](NC(=O)c2ccncc2)CC1 [Example 207]	1.7 nM	158 nM	–	–
CC(C)(F)CNc1cc(Nc2ccn3nccc3n2)ncc1C(=O)NC[C@@H](F)C(C)(C)O [Example 253]	5.2 nM	308 nM	–	–
CC(C)Nc1cc(Nc2ccc3ncsc3c2)ncc1C(=O)NCC[C@@H](C)NC(=O)CCCC(C)(C)O [Example 190]	3.3 nM	250 nM	–	–
CNC(=O)c1cnc(Nc2ccc3ncsc3c2)cc1NC1C2CC3CC1CC(O)(C3)C2 (single isomer, unassigned) [Example 147]	17.4 nM	–	507 nM	–
CC(C)Nc1cc(Nc2ccc3ncsc3c2)ncc1C(=O)NC1CCCC(CO)C1 (stereo not drawn) [Example 172]	6.7 nM	–	300 nM	–
CC(C)Nc1cc(Nc2ccc3ncsc3c2)ncc1C(=O)NC1CCC(=O)CC1 [Example 526, 6-(benzo[d]thiazol-6-ylamino)-4-(isopropylamino)-N-(4-oxocyclohexyl)nicotinamide]	6.6 nM	–	–	EC50 [1, 4]: 423 nM
CC(C)NC(=O)N[C@H](C)CCNC(=O)c1cnc(Nc2ccc3ncsc3c2)cc1NC(C)C [Example 177]	1.7 nM	191 nM	–	–
CC(C)Nc1cc(Nc2ccn3ncc(Cl)c3n2)ncc1C(=O)NC[C@@H](F)C(C)(C)O [Example 243]	5.5 nM	–	567 nM	–
CC(C)Nc1cc(Nc2ccc3ncsc3c2)ncc1C(=O)NCC[C@@H](C)NC(=O)N1CCCC1 [Example 212]	6.9 nM	712 nM	–	–
CC(C)Nc1cc(Nc2ccc3ncsc3c2)ncc1C(=O)NC12CCC(O)(CC1)C2 [Example 176]	10.3 nM	489 nM	–	–
CC(C)Nc1cc(Nc2ccc3ncsc3c2)ncc1C(=O)NCC[C@@H](C)NC(=O)CC1CCCOC1 (stereo partly drawn) [Example 194]	2.5 nM	208 nM	–	–
CC(C)Nc1cc(Nc2ccc3ncsc3c2)ncc1C(=O)NC1CCC(C(C)(C)O)CC1 (stereo not drawn) [Example 456]	1.6 nM	336 nM	–	–
CC(C)Nc1cc(Nc2ccc3ncsc3c2)ncc1C(=O)NCC[C@@H](C)NC(=O)OC(C)C [Example 183]	3.9 nM	436 nM	–	–
Cc1cc2nc(Nc3cc(NC(C)C)c(C(=O)NC[C@@H](F)C(C)(C)O)cn3)ccn2n1 [Example 379]	6.3 nM	–	–	–

Structure (SMILES)	IC50 (IRAK4)	IC50 [1, 2]	IC50 [1, 3]	other results
CC(C)(O)[C@H](F)CNC(=O)c1cnc(Nc2ccc3ncsc3c2)cc1NC1CCC1 [Example 46]	–	183 nM	–	–
CC(C)(O)[C@H](F)CNC(=O)c1cnc(Nc2nc3ccnn3cc2F)cc1NC1CCCC1F (stereo partly drawn) [Example 471]	–	–	1200 nM	–
CC(C)(O)[C@H](F)CNC(=O)c1cnc(Nc2nc3ccnn3cc2F)cc1NC1CCCC1O (stereo partly drawn) [Example 465]	–	–	388 nM	–
CC(O)([C@H](F)CNC(=O)c1cnc(Nc2ccc3ncsc3c2)cc1NC1CCCC1F)C(F)(F)F (stereo in doubt) [Example 340]	–	–	419 nM	–
CC(C)(O)[C@H](F)CNC(=O)c1cnc(Nc2ccc3ncsc3c2)cc1NCC1CC1 [Example 62]	–	288 nM	–	–
CC(C)(O)[C@H](F)CNC(=O)c1cnc(Nc2ccc3[nH]c(=O)sc3c2)cc1NC1CCCC1 [Example 34]	–	152 nM	–	–
CC(C)Nc1cc(Nc2ccc3[nH]c(=O)oc3c2)ncc1C(=O)NC[C@@H](F)C(C)(C)O [Example 393]	–	392 nM	–	–
CC(C)(O)[C@H](F)CNC(=O)c1cnc(Nc2nc3ccnn3cc2F)cc1NC1CCCC1O (stereo partly drawn) [Example 464]	–	–	843 nM	–
CC(C)(O)[C@H](F)CNC(=O)c1cnc(Nc2nc3ccnn3cc2F)cc1NC1CCCC1F (stereo partly drawn) [Example 463]	–	–	204 nM	–
CC(C)(O)[C@H](F)CNC(=O)c1cnc(Nc2ccc3ncccc3n2)cc1NC1CCCOC1 (stereo partly drawn) [Example 431]	–	–	220 nM	–
CC(C)(O)[C@H](F)CNC(=O)c1cnc(Nc2nc3ccnn3cc2F)cc1NC1CCCC1F (stereo partly drawn) [Example 472]	–	–	1360 nM	–
CC(C)Nc1cc(Nc2ccc3nscc3c2)ncc1C(=O)NC[C@@H](F)C(C)(C)O [Example 56]	–	330 nM	–	–
CNC(=O)c1cnc(Nc2ccc3ncsc3c2)cc1N[C@H](CO)c1ccccc1 [Example 145]	–	–	–	IC50 ([1]; Homo sapiens, PBMC, 5 h): 260 nM
CC(C)(O)[C@H](F)CNC(=O)c1cnc(Nc2ccc3ncsc3c2)cc1NCC1CCCC1F (stereo partly drawn) [Example 116]	–	–	296 nM	–
CC(C)Nc1cc(Nc2ccc3nsnc3c2)ncc1C(=O)NC[C@@H](F)C(O)C(C)C (stereo partly drawn) [Example 23]	–	–	165 nM	–
CC(C)(O)[C@H](F)CNC(=O)c1cnc(Nc2ccc3ncsc3c2)cc1N[C@@H](c1cc(Cl)cc(Cl)c1)[C@H](O)CO [Example 77]	–	377 nM	–	–

Now from value to compound, other results behind:

IC50 (IRAK4)	Structure (SMILES)	IC50 [1, 2]	IC50 [1, 3]	other results
3.8 nM	CC(C)(O)[C@H](F)CNC(=O)c1cnc(Nc2ncc3ncccc3n2)cc1N[C@H]1CCC[C@@H]1F [Example 445]	106 nM	–	–
3.9 nM	CC(C)(O)[C@H](F)CNC(=O)c1cnc(Nc2ccc3ncsc3c2)cc1NC1CCC(O)C1 (stereo partly drawn) [Example 37]	297 nM	–	–
4 nM	CC(C)(O)[C@H](F)CNC(=O)c1cnc(Nc2ccc3nccn3n2)cc1NC1CCOCC1 [Example 279]	292 nM	–	–
5.3 nM	CC(CO)Nc1cc(Nc2ccc3ncsc3c2)ncc1C(=O)NC[C@@H](F)C(C)(C)O (stereo partly drawn) [Example 39]	503 nM	–	–
2.9 nM	CC(C)(O)[C@H](F)CNC(=O)c1cnc(Nc2ccc3ncsc3c2)cc1NC1CCC(F)C1 (single isomer, unassigned) [Example 362, 6-(benzo[d]thiazol-6-ylamino)-N-(2-fluoro-3-hydroxy-3-methylbutyl)-4-(3-fluorocyclopentylamino)nicotinamide]	–	44 nM	–
3.6 nM	CC(C)(O)[C@H](F)CNC(=O)c1cnc(Nc2ccn3ncc(F)c3c2)cc1NC1CC(F)(F)C1 [Example 420]	184 nM	–	–
5.2 nM	CC(C)(O)C1CC(Nc2cc(Nc3ccc4ncsc4c3)ncc2C(=O)NC[C@@H](F)C(C)(C)O)C1 (stereo partly drawn) [Example 64]	440 nM	–	–
2.5 nM	CC1CCCC1Nc1cc(Nc2ccc3ncsc3c2)ncc1C(=O)NC[C@@H](F)C(C)(C)O (stereo partly drawn) [Example 104]	350 nM	–	–
4.1 nM	CC(C)(F)CNc1cc(Nc2ccc3ncccc3c2)ncc1C(=O)NC[C@@H](F)C(C)(C)O [Example 127]	472 nM	–	–
2.6 nM	CC(C)Nc1cc(Nc2ccc3ncoc3c2)ncc1C(=O)NC[C@@H](F)C(C)(C)O [Example 130]	231 nM	–	–
2.6 nM	CC(C)(O)[C@H](F)CNC(=O)c1cnc(Nc2ccc3ncc(C#N)cc3n2)cc1NC1CCC(F)C1 (stereo partly drawn) [Example 412]	–	109 nM	–
6.5 nM	CC(C)(O)[C@H](F)CNC(=O)c1cnc(Nc2cnc3[nH]ccc3c2)cc1NC1CC1 [Example 434]	52 nM	–	–
10.4 nM	COc1ncnc2ccc(Nc3cc(NC4CC4)c(C(=O)NC[C@@H](F)C(C)(C)O)cn3)cc12 [Example 128]	391 nM	–	–
5.2 nM	CC(C)(O)[C@H](F)CNC(=O)c1cnc(Nc2ccc3ncsc3c2)cc1NC1CCC(O)C1 (stereo partly drawn) [Example 38]	–	426 nM	–
9.2 nM	CC(O)[C@H](F)CNC(=O)c1cnc(Nc2ccc3ncsc3c2)cc1NC1CCCC1 (stereo partly drawn) [Example 29]	–	128 nM	–
5.8 nM	CC(C)(O)[C@H](F)CNC(=O)c1cnc(Nc2ccc3ncsc3c2)cc1NC1CCC(F)C1 (single isomer, unassigned) [Example 365, 6-(benzo[d]thiazol-6-ylamino)-N-(2-fluoro-3-hydroxy-3-methylbutyl)-4-(3-fluorocyclopentylamino)nicotinamide]	–	97 nM	–
5.2 nM	CC(C)(O)[C@H](F)CNC(=O)c1cnc(Nc2ccc3ncsc3c2)cc1Nc1cccc(CO)c1 [Example 57]	314 nM	–	–
1.7 nM	CC(F)CNc1cc(Nc2ccc3ncsc3c2)ncc1C(=O)NC[C@@H](F)C(C)(C)O (stereo partly drawn) [Example 450]	217 nM	–	–
3.5 nM	CC(C)C(O)[C@H](F)CNC(=O)c1cnc(Nc2ccc3ncsc3c2)cc1NC1CC1 (stereo partly drawn) [Example 25]	–	60 nM	–
2.5 nM	CC(C)(O)[C@H](F)CNC(=O)c1cnc(Nc2ccc3ncsc3c2)cc1NC1CCC(F)C1 (single isomer, unassigned) [Example 363, 6-(benzo[d]thiazol-6-ylamino)-N-(2-fluoro-3-hydroxy-3-methylbutyl)-4-(3-fluorocyclopentylamino)nicotinamide]	–	87 nM	–
4.4 nM and 3.2 nM	CC1COCCC1Nc1cc(Nc2ccc3ncsc3c2)ncc1C(=O)NC[C@@H](F)C(C)(C)O (stereo partly drawn) [Example 234]	–	–	–

From US9546153B2, “Bicyclic heterocycle substituted pyridyl compounds useful as kinase modulators” (BRISTOL-MYERS SQUIBB COMPANY, priority 2012, dated 2017)
